What all share (format): cell-based
Experiment [1] has as its target T1, M1 muscarinic receptor (Homo sapiens, UniProt P11229).
T1 construct: expressed in transfected cells; host or cells: CHO (M1-CHO)
T1 sequence (P11229 1-460): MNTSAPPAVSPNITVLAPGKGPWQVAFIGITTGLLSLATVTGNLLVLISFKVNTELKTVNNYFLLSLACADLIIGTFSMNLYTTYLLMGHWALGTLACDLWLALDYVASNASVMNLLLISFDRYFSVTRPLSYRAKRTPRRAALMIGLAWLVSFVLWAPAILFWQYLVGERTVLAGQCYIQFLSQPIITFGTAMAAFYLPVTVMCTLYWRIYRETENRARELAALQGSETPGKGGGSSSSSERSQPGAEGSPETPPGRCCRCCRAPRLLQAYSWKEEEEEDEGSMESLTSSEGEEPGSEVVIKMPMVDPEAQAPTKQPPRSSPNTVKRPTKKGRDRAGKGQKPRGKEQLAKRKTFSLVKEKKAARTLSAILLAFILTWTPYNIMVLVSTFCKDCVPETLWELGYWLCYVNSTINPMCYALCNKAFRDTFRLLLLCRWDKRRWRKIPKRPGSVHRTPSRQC
Description: Functional mobilization of intracellular calcium (FLIPR), M1-CHO cells. The following applies: for Emax: 100% efficacy is the maximum response obtained with the Carbachol control; for M1 Activity: CHO cells expressing M1, calcium mobilization. The procedure: (§1) Functional Mobilization of Intracellular Calcium to Determine Muscarinic Receptor Activity:
(§2) CHO cells expressing muscarinic receptors (M1 to M5) are grown as monolayers in tissue culture flasks at 37° C. in a humidified atmosphere containing 5% CO2 and passaged every 3-5 days. The growth media is Dulbecco's modified eagles medium (DMEM, Gibco Cat# 12430-054), containing 25 mM Hepes and supplemented with Fetal Bovine Serum (Hyclone, cat# SH30071.03), 0.1 mM of MEM non-essential amino acids (GIBCO, Cat# 11140-050), 1 mM MEM Sodium Pyruvate (GIBCO Cat# 11360-070) and 100 units/ml of Penicillin G and 100 μg/ml of Streptomycin (GIBCO Cat# 15140-122). The recombinant muscarinic receptor cell lines are grown under antibiotic pressure with media containing 25 μg/ml zeocin and 500 μg/ml G418 (M1-CHO), 4 μg/ml puromycin, 50 μg/ml zeocin and 2.5 μg/ml blasticidin (M2 and M4-CHO) or 50 μg/ml zeocin and 4 μg/ml puromycin (M3 and M5-CHO).
(§3) Cells are harvested at 80-90% confluence using Versene (GIBCO Cat# 15040-066), collected by centrifugation and seeded 18-24 hours prior to running the calcium assay at a density of 5,000-10,000 cells/well in […], clear-bottomed 384-well plates (BD Biocoat, poly-D-lysine, Cat#356663). The day of the experiment, the cells are washed with a plate washer (Bioteck Instruments, ELX 405) using Bath 1 buffer (140-mM NaCl, 4.5-mM KCl, 2-mM CaCl2, 1-mM MgCl2, 10-mM Hepes-Na, 10-mM Glucose, pH 7.4, with NaOH) containing 1 mM Probenecid. Next, the calcium dye Fluo-3 (25 μl/well of Fluo-3 AM at 4 μM, Molecular Probes F-1241, in Bath 1 buffer containing 1 mM Probenecid) is added to the 25 μl of Bath 1 remaining in each well after the plate wash and the dye is loaded at 37° C. in the tissue culture incubator for 60-90 min. The fluorescent dye is removed using the plate washer with Bath 1 containing 1 mM Probenecid, leaving 25 μl/well of this solution after the wash. Alternatively, cells can be loaded with the calcium indicator from Molecular Devices (Calcium 3 Assay Reagents, Cat # R7181) adding 5 μl of a 5× solution dye in Bath 1 containing 1 mM Probenecid (10 ml per dye flask cat# R7182 to generate a solution 20×) to 20 μl of the same buffer. After loading for 60 min, the experiment can be run without having to remove the dye.
(§4) Compounds are prepared at a 2× fold concentration in a 96-well plate (round bottom, Costar Corning cat# 3656), by reconstituting the pre-spotted compounds in bath 1 containing 1 mM probenecid. The final concentration DMSO is 0.5%, and the amount of DMSO is normalized across the assay plate. To determine an agonist action of the compounds on muscarinic receptors, the reconstituted compounds are added (25 μl compound/well) to the cell assay plate (containing 25 μl/well) using the multi-channel robotic system of the FLIPR 3 Instrument (Molecular Devices, Sunnyvale, Calif.). To determine a functional inhibitory action of the compounds on muscarinic receptors, the reconstituted compounds are added (25 μl compound/well) to the assay plate and pre-incubated for 15 min prior to adding 25 μl of Carbachol at 3× the EC80 for each muscarinic subtype. Alternatively, the compounds can be co-applied simultaneously with the agonist. In both assay modes, the fluorescence is recorded for 60 sec (excitation wavelength is […] and emission wavelength 540 nm) using the FLIPR 3 instrument.
(§5) The potency, efficacy and selectivity of the muscarinic compounds were evaluated by screening the compound activity across the whole family (M1 to M5 cells). Compounds were also screened for activity on other proteins such as other GPCRs and ion channels to determine selectivity on M4 receptors.
(§6) Examples of activities and efficacies of the muscarinic compounds of formulae (I, Ia, Ib, Ic, and Id) on modulating M1 and M4 receptors are shown below in Table 3. […]
Background: Calcium flux is commonly read through the fluorescence of an indicator in the cells.

The target in experiment [2] is T2, M3 muscarinic receptor (Homo sapiens, UniProt P20309).
T2 construct: expressed in transfected cells; host or cells: CHO (M3-CHO)
The experiment is described as follows: Functional mobilization of intracellular calcium (FLIPR), M3-CHO cells. The following applies: for Emax: 100% efficacy is the maximum response obtained with the Carbachol control; for M3 Activity: CHO cells expressing M3, calcium mobilization. The procedure:
as §1, §2, §3, §4, §5, §6

The target in experiment [3] is T3, M4 muscarinic receptor (Homo sapiens, UniProt P08173).
T3 construct: expressed in transfected cells; host or cells: CHO (M4-CHO)
T3 sequence (P08173 1-479): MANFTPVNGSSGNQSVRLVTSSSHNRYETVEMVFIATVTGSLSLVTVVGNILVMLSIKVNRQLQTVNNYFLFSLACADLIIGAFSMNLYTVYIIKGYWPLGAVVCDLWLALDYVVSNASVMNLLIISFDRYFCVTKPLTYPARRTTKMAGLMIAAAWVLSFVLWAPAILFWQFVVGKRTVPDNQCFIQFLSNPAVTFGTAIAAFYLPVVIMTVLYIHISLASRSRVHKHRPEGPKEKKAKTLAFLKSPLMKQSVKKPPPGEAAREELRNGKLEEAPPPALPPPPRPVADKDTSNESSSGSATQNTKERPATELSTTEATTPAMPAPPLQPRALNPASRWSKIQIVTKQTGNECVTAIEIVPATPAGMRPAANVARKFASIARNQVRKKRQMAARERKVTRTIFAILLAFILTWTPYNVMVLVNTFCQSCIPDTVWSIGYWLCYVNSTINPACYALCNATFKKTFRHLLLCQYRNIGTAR
Description: Functional mobilization of intracellular calcium (FLIPR), M4-CHO cells. The following applies: for Emax: 100% efficacy is the maximum response obtained with the Carbachol control; for M4 Activity: CHO cells expressing M4, calcium mobilization. The procedure: as §1, §2, §3, §4, §5, §6

In experiment [4] the target is T4, M2 muscarinic receptor (Homo sapiens, UniProt P08172).
T4 construct: expressed in transfected cells; host or cells: CHO (M2-CHO)
T4 sequence (P08172 1-466): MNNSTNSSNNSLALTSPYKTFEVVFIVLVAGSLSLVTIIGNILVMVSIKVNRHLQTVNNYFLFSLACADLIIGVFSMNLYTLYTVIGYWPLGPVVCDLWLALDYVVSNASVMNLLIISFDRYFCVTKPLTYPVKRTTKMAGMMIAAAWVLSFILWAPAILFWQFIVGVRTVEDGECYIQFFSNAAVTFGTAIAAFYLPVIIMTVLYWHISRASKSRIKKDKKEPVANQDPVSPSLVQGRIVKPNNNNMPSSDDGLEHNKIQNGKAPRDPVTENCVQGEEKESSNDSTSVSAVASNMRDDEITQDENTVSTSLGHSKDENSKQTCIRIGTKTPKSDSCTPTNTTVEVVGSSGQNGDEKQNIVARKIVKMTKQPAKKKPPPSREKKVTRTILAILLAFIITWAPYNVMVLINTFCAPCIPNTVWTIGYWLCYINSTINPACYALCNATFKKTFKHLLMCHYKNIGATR
Description: Functional mobilization of intracellular calcium (FLIPR), M2-CHO cells. The following applies: for Emax: 100% efficacy is the maximum response obtained with the Carbachol control; for M2 Activity: CHO cells expressing M2, calcium mobilization. How it is done: as §1, §2, §3, §4, §5, §6

One may read the Emax as the maximal effect, on the per cent scale that the assay sets.

T2 sequence (P20309 whole entry): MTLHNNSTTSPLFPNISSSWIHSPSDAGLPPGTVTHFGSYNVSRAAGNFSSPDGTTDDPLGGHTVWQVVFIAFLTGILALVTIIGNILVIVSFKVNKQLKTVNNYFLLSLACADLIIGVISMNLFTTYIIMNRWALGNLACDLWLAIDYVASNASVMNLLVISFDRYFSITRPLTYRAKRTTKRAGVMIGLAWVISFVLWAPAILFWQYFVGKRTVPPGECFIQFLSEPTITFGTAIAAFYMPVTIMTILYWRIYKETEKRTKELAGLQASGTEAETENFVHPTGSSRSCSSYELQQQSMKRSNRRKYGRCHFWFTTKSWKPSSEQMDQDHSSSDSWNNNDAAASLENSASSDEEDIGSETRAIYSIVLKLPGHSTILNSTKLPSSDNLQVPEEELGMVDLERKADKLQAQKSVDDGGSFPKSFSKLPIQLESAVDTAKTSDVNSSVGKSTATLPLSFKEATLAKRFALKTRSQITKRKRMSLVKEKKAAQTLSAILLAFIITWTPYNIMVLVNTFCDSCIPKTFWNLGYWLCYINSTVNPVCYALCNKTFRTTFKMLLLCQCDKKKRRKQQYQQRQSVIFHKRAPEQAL

As for `CCOC(=O)N1CCC(N2CCC3(CC2)OC(=O)Nc2ccccc23)CC1` [Compound 62], in experiment [1], the Emax is 25 to 100% and the “M1 Activity” value is “+++ (activity was measured to be less than 2.0 μM)”. In experiment [2], the Emax lay in the range of 25 to 100% and the “M3 Activity” value is “+++ (activity was measured to be less than 2.0 μM)”. In experiment [3], the Emax is 25 to 100% and the “M4 Activity” value is listed as “+++ (activity was measured to be less than 2.0 μM)”. Further, in experiment [4], the Emax was 25 to 100% and the “M2 Activity” value is on record as “+++ (activity was measured to be less than 2.0 μM)”.
In the case of `O=C1CCC(N2CCC3(CC2)OC(=O)Nc2ccccc23)CC1` [Compound 64, 1′-(4-oxocyclohexyl)spiro[benzo[d][1,3]oxazine-4,4′-piperidin]-2(1H)-one], in experiment [1], the Emax lay within 25 to 100% and the “M1 Activity” value was “++ (activity was measured to be from 2.0 μM to 5.0 μM)”. Further, in experiment [2], the maximal response (Emax) is < 25% and the “M3 Activity” value is recorded as “+ (activity was measured to be greater than 5.0 μM)”. Also, in experiment [3], the Emax was in the range of 25 to 100% and the “M4 Activity” value was “++ (activity was measured to be from 2.0 μM to 5.0 μM)”. For the same compound, in experiment [4], the maximal response (Emax) lay in the range of 25 to 100% and the “M2 Activity” value is “+ (activity was measured to be greater than 5.0 μM)”.
In the case of `CN1C(=O)OC2(CCN(C3CCCCCC3)CC2)c2ccccc21` [Compound 65, 1′-cycloheptyl-1-methylspiro[benzo[d][1,3]oxazine-4,4′-piperidin]-2(1H)-one], in experiment [1], the maximal response (Emax) is < 25% and the “M1 Activity” value is “+ (activity was measured to be greater than 5.0 μM)”. In experiment [2], the Emax was < 25% and the “M3 Activity” value is given as “+ (activity was measured to be greater than 5.0 μM)”. Moreover, in experiment [3], the Emax fell in the range of 25 to 100% and the “M4 Activity” value is recorded as “+++ (activity was measured to be less than 2.0 μM)”. Also, in experiment [4], the maximal effect (Emax) is < 25% and the “M2 Activity” value was “+ (activity was measured to be greater than 5.0 μM)”.
As for `O=C1Nc2ccccc2C2(CCN(C3CC4CCC(C4)C3)CC2)O1` (stereo not drawn) [Compound 67, 1′-(bicyclo[3.2.1]octan-3-yl)spiro[benzo[d][1,3]oxazine-4,4′-piperidin]-2(1H)-one], in experiment [1], the maximal effect (Emax) lay in the range of 25 to 100% and the “M1 Activity” value was “+++ (activity was measured to be less than 2.0 μM)”. For the same compound, in experiment [2], the Emax lay within 25 to 100% and the “M3 Activity” value is reported as “+ (activity was measured to be greater than 5.0 μM)”. Further, in experiment [3], the Emax was in the range of 25 to 100% and the “M4 Activity” value is reported as “+++ (activity was measured to be less than 2.0 μM)”. In experiment [4], the maximum response (Emax) lay in the range of 25 to 100% and the “M2 Activity” value is on record as “+++ (activity was measured to be less than 2.0 μM)”.
As to `O=C1Nc2ccccc2C2(CCN(C3CCN(c4cnccn4)CC3)CC2)O1` [Compound 74, 1′-(1-(pyrazin-2-yl)piperidin-4-yl)spiro[benzo[d][1,3]oxazine-4,4′piperidin]-2(1H)-one], in experiment [1], the Emax is > 100% and the “M1 Activity” value is recorded as “+++ (activity was measured to be less than 2.0 μM)”. For the same compound, in experiment [2], the Emax was 25 to 100% and the “M3 Activity” value is reported as “+ (activity was measured to be greater than 5.0 μM)”. For the same compound, in experiment [3], the Emax was in the range of 25 to 100% and the “M4 Activity” value is on record as “+++ (activity was measured to be less than 2.0 μM)”. In experiment [4], the maximal response (Emax) was 25 to 100% and the “M2 Activity” value is “+++ (activity was measured to be less than 2.0 μM)”.
On to `CC(C)CCN1CCC2(CC1)OC(=O)Nc1ccccc12` [Compound 76, 1′-isopentylspiro[benzo[d][1,3]oxazine-4,4′-piperidin]-2(1H)-one], for which, in experiment [1], the Emax lay within 25 to 100% and the “M1 Activity” value was “+++ (activity was measured to be less than 2.0 μM)”. Also, in experiment [2], the Emax was < 25% and the “M3 Activity” value is “+ (activity was measured to be greater than 5.0 μM)”. Besides, in experiment [3], the Emax lay in the range of 25 to 100% and the “M4 Activity” value is recorded as “+++ (activity was measured to be less than 2.0 μM)”. In experiment [4], the maximal response (Emax) lay within 25 to 100% and the “M2 Activity” value is “+ (activity was measured to be greater than 5.0 μM)”.

These data come from patent US7696201B2, “Modulators of muscarinic receptors” (Vertex Pharmaceuticals Incorporated, priority 2006, dated 2010).
